Test results: US11234939B2, “Dosage forms comprising a plasma kallikrein inhibitor” (KALVISTA PHARMACEUTICALS LIMITED, priority 2017, dated 2022)

Tests used:
[1] = tested on: rats; conditions: systemic administration; cited from earlier work
[2] = Visual Aqueous Solubility; assay type: physicochemical; conditions: thermodynamic from solid; 10 mg in 20 mL water
Experimental: Form 1 (10 mg) was weighed into a glass vial and water was added in […] up to 3 mL then 1 mL portions thereafter. Solubility was assessed visually following a brief period of equilibration.

[3] = Gravimetric Vapour Sorption (GVS) of Form 1; assay type: physicochemical
Experimental: Gravimetric Vapour Sorption (GVS) data were collected using the following method: Approximately 10 mg of sample was placed into a wire-mesh vapour sorption balance pan and loaded into an ‘IgaSorp’ vapour sorption balance (Hiden Analytical Instruments). The sample was then dried by maintaining a 0% humidity environment until no further weight change was recorded. Subsequently, the sample was then subjected to a ramping profile from 0-90% RH at 10% RH increments, maintaining the sample at each step until equilibration had been attained (99% step completion). Upon reaching equilibration, the % RH within the apparatus was ramped to the next step and the equilibration procedure repeated. After completion of the sorption cycle, the sample was then dried using the same procedure. The weight change during the sorption/desorption cycles were then monitored, allowing for the hygroscopic nature of the sample to be determined.

[4] = Stability study of Form 1 on storage; assay type: physicochemical; conditions: for Change in XRPD diffractogram on storage: after 1 month and 3 months
Experimental: A sample of Form 1 was packed in double polyethylene bags and sealed in a HDPE bottle and stored at conditions of 25° C./60% RH. The sample was reanalysed after 1 month and 3 months by XRPD (using Method B). No change in the XRPD diffractogram was observed when the sample was stored at 25° C./60% RH after either 1 month or 3 months.
Further tests on the sample of Form 1 stored at 25° C./60% RH were carried out as described in Table 1:
A second sample of Form 1 was packed in double polyethylene bags and sealed in a HDPE bottle and stored under accelerated stability conditions of 40° C./75% RH. The sample was reanalysed after 1 month and 3 months by XRPD (using Method B). No change in the XRPD diffractogram was observed when the sample was stored at 40° C./75% RH after either 1 month or 3 months.
Further tests on the sample of Form 1 stored at 40° C./75% RH were carried out as described in Table 2: […]

[5] = Slurry Studies; assay type: physicochemical; conditions: 90/10 IPA/water, ambient temperature, 72 hrs
Experimental: Form 1 (20 mg) was suspended in 90/10 IPA/water […] and shaken at ambient temperature for 72 hrs. The supernatant was evaporated rather than filtered due to the small volume and the resulting solid was examined by XRPD (FIG. 5).

[6] = Gravimetric Vapour Sorption (GVS) of Form 5; assay type: physicochemical; conditions: 0% to 95% RH
Experimental: Form 5 is hygroscopic with a mass uptake of 23%, as determined by Gravimetric Vapour Sorption (GVS) studies. The GVS studies were performed using a Surface Measurement Systems Ltd. DVS-1 No Video, equipment #2126. The sample was loaded into a balance pan, typically 20-30 mg, and equilibrated at 0% RH. After the material was dried, the RH was increased with 10% per step for 1 hour per increment, ending at 95% RH. After completion of the sorption cycle, the sample was dried using the same method. The software used for data collection was DVSWin v3.01 No Video. Data analysis was performed using DVS Standard Analysis Suite v6.3.0 (Standard).

[7] = Polymorph stability of Form 5; assay type: physicochemical; conditions: also on XRPD measurement
[8] = tested on: LPS-induced disseminated intravascular coagulation; conditions: cited from earlier work
[9] = tested on: blood; conditions: blood contacted with the inhibitor; cited from earlier work
[10] = tested on: intrinsic pathway of coagulation; conditions: in vitro; cited from earlier work

N=C(N)c1ccc(CNC(=O)c2cnn(Cc3ccccc3)c2)cc1 [ASP-440]
Hematoma expansion [1]: reduced

COCc1nn(Cc2ccc(Cn3ccccc3=O)cc2)cc1C(=O)NCc1nccc(OC)c1F [Form 1, N-[(3-Fluoro-4-methoxypyridin-2-yl)methyl]-3-(methoxymethyl)-1-({4-[(2-oxopyridin-1-yl)methyl]phenyl}methyl)pyrazole-4-carboxamide]
solubility [2]: < 500 µg/mL | %-Wt(dry basis) ([3]; adsorption, 0.0335 %-RH): 0.04722% | %-Wt(dry basis) ([3]; adsorption, 9.9791 %-RH): 0.23% | %-Wt(dry basis) ([3]; adsorption, 20.0169 %-RH): 0.3541% | %-Wt(dry basis) ([3]; adsorption, 30.0091 %-RH): 0.7126% | %-Wt(dry basis) ([3]; adsorption, 39.9998 %-RH): 0.825% | %-Wt(dry basis) ([3]; adsorption, 49.991 %-RH): 1.207% | %-Wt(dry basis) ([3]; adsorption, 59.9808 %-RH): 1.699% | %-Wt(dry basis) ([3]; adsorption, 70.0195 %-RH): 1.912% | %-Wt(dry basis) ([3]; adsorption, 80.0136 %-RH): 2.186% | %-Wt(dry basis) ([3]; adsorption, 90.0039 %-RH): 3.226% | %-Wt(dry basis) ([3]; desorption, 0.0335 %-RH): 0.000368% | %-Wt(dry basis) ([3]; desorption, 4.9801 %-RH): 0.1269% | %-Wt(dry basis) ([3]; desorption, 15.0203 %-RH): 0.5017% | %-Wt(dry basis) ([3]; desorption, 25.0135 %-RH): 0.7008% | %-Wt(dry basis) ([3]; desorption, 35.0052 %-RH): 1.017% | %-Wt(dry basis) ([3]; desorption, 44.9954 %-RH): 1.525% | %-Wt(dry basis) ([3]; desorption, 54.9837 %-RH): 1.685% | %-Wt(dry basis) ([3]; desorption, 64.9759 %-RH): 1.865% | %-Wt(dry basis) ([3]; desorption, 75.0151 %-RH): 2.116% | %-Wt(dry basis) ([3]; desorption, 85.0063 %-RH): 2.547% | Hygroscopicity (GVS) ([3]; up to 70% relative humidity): absence of significant hygroscopicity | Appearance ([4]; 25° C./60% RH, 1 month): Off-white | Assay by HPLC (on an anhydrous and solvent free basis) ([4]; 25° C./60% RH, 1 month): 99.5 % w/w | DSC Tonset ([4]; 25° C./60% RH, 1 month): 151.1 °C | DSC Tpeak ([4]; 25° C./60% RH, 1 month): 152.4 °C | HPLC assay (on an as is basis) ([4]; 25° C./60% RH, 1 month): 99.4 % w/w | Purity by HPLC ([4]; 25° C./60% RH, 1 month): 99.62 area % | Solid form of compound A by XRPD ([4]; 25° C./60% RH, 1 month): Conforms | Total impurities ([4]; 25° C./60% RH, 1 month): 0.38 area % | Water by Karl Fischer analysis ([4]; 25° C./60% RH, 1 month): <0.1 % w/w | Appearance ([4]; 25° C./60% RH, 3 months): Off-white | Assay by HPLC (on an anhydrous and solvent free basis) ([4]; 25° C./60% RH, 3 months): 99.6 % w/w | DSC Tonset ([4]; 25° C./60% RH, 3 months): 150.8 °C | DSC Tpeak ([4]; 25° C./60% RH, 3 months): 152.2 °C | HPLC assay (on an as is basis) ([4]; 25° C./60% RH, 3 months): 99.5 % w/w | Purity by HPLC ([4]; 25° C./60% RH, 3 months): 99.70 area % | Solid form of compound A by XRPD ([4]; 25° C./60% RH, 3 months): Conforms | Total impurities ([4]; 25° C./60% RH, 3 months): 0.30 area % | Water by Karl Fischer analysis ([4]; 25° C./60% RH, 3 months): <0.1 % w/w | Appearance ([4]; 25° C./60% RH, Initial): Off-white | Assay by HPLC (on an anhydrous and solvent free basis) ([4]; 25° C./60% RH, Initial): 101.0 % w/w | DSC Tonset ([4]; 25° C./60% RH, Initial): 151.3 °C | DSC Tpeak ([4]; 25° C./60% RH, Initial): 152.9 °C | HPLC assay (on an as is basis) ([4]; 25° C./60% RH, Initial): 100.9 % w/w | Purity by HPLC ([4]; 25° C./60% RH, Initial): 99.70 area % | Solid form of compound A by XRPD ([4]; 25° C./60% RH, Initial): Conforms | Total impurities ([4]; 25° C./60% RH, Initial): 0.30 area % | Water by Karl Fischer analysis ([4]; 25° C./60% RH, Initial): <0.1 % w/w | Change in XRPD diffractogram on storage ([4]; 25° C./60% RH): no change | Appearance ([4]; 40° C./75% RH, 1 month): Off-white | Assay by HPLC (on an anhydrous and solvent free basis) ([4]; 40° C./75% RH, 1 month): 99.5 % w/w | DSC Tonset ([4]; 40° C./75% RH, 1 month): 151.1 °C | DSC Tpeak ([4]; 40° C./75% RH, 1 month): 152.3 °C | HPLC assay (on an as is basis) ([4]; 40° C./75% RH, 1 month): 99.4 % w/w | Purity by HPLC ([4]; 40° C./75% RH, 1 month): 99.57 area % | Solid form of compound A by XRPD ([4]; 40° C./75% RH, 1 month): Conforms to | Total impurities ([4]; 40° C./75% RH, 1 month): 0.43 area % | Water by Karl Fischer analysis ([4]; 40° C./75% RH, 1 month): <0.1 % w/w | Appearance ([4]; 40° C./75% RH, 3 months): Off-white | Assay by HPLC (on an anhydrous and solvent free basis) ([4]; 40° C./75% RH, 3 months): 100.0 % w/w | DSC Tonset ([4]; 40° C./75% RH, 3 months): 150.6 °C | DSC Tpeak ([4]; 40° C./75% RH, 3 months): 152.5 °C | HPLC assay (on an as is basis) ([4]; 40° C./75% RH, 3 months): 99.9 % w/w | Purity by HPLC ([4]; 40° C./75% RH, 3 months): 99.71 area % | Solid form of compound A by XRPD ([4]; 40° C./75% RH, 3 months): Conforms to | Total impurities ([4]; 40° C./75% RH, 3 months): 0.29 area % | Water by Karl Fischer analysis ([4]; 40° C./75% RH, 3 months): 0.1 % w/w | Appearance ([4]; 40° C./75% RH, Initial): Off-white | Assay by HPLC (on an anhydrous and solvent free basis) ([4]; 40° C./75% RH, Initial): 101.0 % w/w | DSC Tonset ([4]; 40° C./75% RH, Initial): 151.3 °C | DSC Tpeak ([4]; 40° C./75% RH, Initial): 152.9 °C | HPLC assay (on an as is basis) ([4]; 40° C./75% RH, Initial): 100.9 % w/w | Purity by HPLC ([4]; 40° C./75% RH, Initial): 99.70 area % | Solid form of compound A by XRPD ([4]; 40° C./75% RH, Initial): Conforms to | Total impurities ([4]; 40° C./75% RH, Initial): 0.30 area % | Water by Karl Fischer analysis ([4]; 40° C./75% RH, Initial): <0.1 % w/w | Change in XRPD diffractogram on storage ([4]; 40° C./75% RH): no change | XRPD after slurry compared with FIG. 1a [5]: tendency to form hydrate(s)

COCc1nn(Cc2ccc(Cn3ccccc3=O)cc2)cc1C(=O)NCc1nccc(OC)c1F [Form 5, N-[(3-Fluoro-4-methoxypyridin-2-yl)methyl]-3-(methoxymethyl)-1-({4-[(2-oxopyridin-1-yl)methyl]phenyl}methyl)pyrazole-4-carboxamide]
GVS (mass uptake %) [6]: 23% | Polymorph conversion over time [7]: converts into polymorph Form 3

Cl.NCC1CCC(C(=O)N[C@@H](Cc2ccccc2)C(=O)Nc2ccc(CC(=O)O)cc2)CC1 (stereo partly shown) [PKSI-527]
Decrease in platelet count and fibrinogen level and increase in FDP level [8]: significantly suppressed

Ecallantide
Activated clotting time (ACT) [9]: increase | Contact activated induced coagulation [10]: delay
